Assay type in all cases: biochemical
Assay [1] concerns the target T1, wild-type SUR1/Kir6.2 channels (Rattus norvegicus, UniProt P70673+Q09429).
T1 construct: A full-length Kir cDNA and a full-length SUR cDNA were subcloned into the mammalian expression vector; expressed in transfected cells; host or cells: COS7 cells (KATP channel-deficient), pcDNA3.1(-) vectors, GFP cDNA co-transfected as a separate reporter
Briefly: Inside-out patch recording of recombinant wild-type channels expressed in COS7 cells. The method, then: (§1) KATP channel-deficient COS7 cells were plated at a density of 3 × 10^5/dish (35 mm in diameter) and cultured in Dulbecco's modified Eagle's medium supplemented with 10% fetal calf serum. Rat Kir6.2 (GenBank X97041) and rat SUR1 (GenBank X97279) cDNAs were used for expression study. A truncated form of Kir6.2 lacking the last 36 amino acids at the C-terminus was obtained by polymerase chain reaction amplification. Polymerase chain reaction products were cloned into the pCR3.1 vector by using the TA cloning system (Invitrogen Corp., Carlsbad, CA, USA) and then cloned into the pcDNA3.1 (-) vector (Invitrogen Corp.) for mammalian expression. Point mutation of cysteine at position 717 (C717), C806, C1378, C1446, and C1491 within SUR1 to serine (C717S, C806S, C1378S, C1446S, and C1491S) was performed by using the Site-Directed Mutagenesis system (Invitrogen Corp.). All cDNA products were sequenced by using the BigDye terminator cycle sequencing kit and an ABI PRISM 377 DNA sequencer (Applied Biosystems, Foster City, CA) to confirm the sequence. A full-length Kir cDNA and a full-length SUR cDNA were subcloned into the mammalian expression vector pcDNA3.1 (-). For electrophysiological recordings, either wild-type or mutated pcDNA3.1 (-) Kir6.2 alone (1 μg), or pcDNA3.1 (-) Kir6.2 (1 μg) plus pcDNA3.1 (-) SUR1 (3 μg) were transfected into COS7 cells with green fluorescent protein cDNA as a reporter gene by using lipofectamine and Opti-MEN 1 reagents (Life Technologies Inc., Rockville, MD) according to the manufacturer's instructions. After transfection, cells were cultured at 37°C with 95% air and 5% CO2 for 48–72 h before being subjected to electrophysiological recordings.
(§2) We recorded current passing through single channels in inside-out or cell-attached patch configurations. In cell-attached patches, both bath and pipette (extracellular) solutions were composed of the following: 140 mM KCl, 10 mM HEPES, 5.5 mM dextrose, and 1 mM EGTA. In inside-out patches, the bath (intracellular) solution contained 140 mM KCl, 1.2 mM MgCl2, 10 mM HEPES, 1.5 mM EGTA and 5.5 mM dextrose. The pipette (extracellular) solution was of the same composition as that used in cell-attached recordings. The pH of all solutions was adjusted to 7.4 with KOH. Osmolality was adjusted approximately to 300 mOsm/l by adding sucrose if necessary. We pulled patch micropipettes from borosilicate glass capillaries using a Flaming/Brown micropipette puller, model P-97 (Sutter, San Rafael, CA) and flame polished them with a microforge polisher (Narishige, Tokyo, Japan) prior to use. Their resistance ranged between 3 and 6 MΩ when filled with the internal solution, and placed into the recording solutions.
(§3) We recorded single channel currents at room temperature (20–25°C) using an Axon CNS Multiclamp 700B amplifier, digitized them using an analog-to-digital converter (Axon CNS DigiData 1440A; Axon Instruments, Foster, CA), and stored them into a PC. Sampling frequency of single-channel data was 5 KHz with a low-pass filter (1 KHz). We used pClamp version 10.2 software (Axon Instruments) for data acquisition and analysis. […] Channel open probability (Po) was determined from the ratios of the area under the peaks in the amplitude histograms fitted by a Gaussian distribution. We calculated channel activity as NPo (where N is the number of observed channels in the patch) from data samples of either 30 s (in inside-out recordings), or 60 s (in cell-attached recordings), in the steady state. […]

Assay [2] addresses T2, SUR1-C717S/Kir6.2 channels (Rattus norvegicus, UniProt P70673+Q09429, C717S).
T2 construct: A full-length Kir cDNA and a full-length SUR cDNA were subcloned into the mammalian expression vector; expressed in transfected cells; host or cells: COS7 cells, pcDNA3.1(-) vectors, GFP cDNA co-transfected as a separate reporter
Briefly: Inside-out patch recording of mutated channels expressed in COS7 cells. Particulars: n = 7. The procedure: as §1, §2, §3

Assay [3] concerns the target T3, KATP channels in large DRG neurons (Rattus norvegicus, UniProt P70673+Q09429).
T3 construct: native KATP channels in large DRG neurons; endogenous in cells; host or cells: acutely dissociated large-diameter neurons from rat L4/L5 dorsal root ganglia (sham-operated or spinal nerve ligated animals)
Briefly: Excised inside-out (cell-free) patch-clamp recording of KATP channel activity.
From the text: We harvested control (L4 and L5) or axotomized (L5) ganglia, from control (SS) or hyperalgesic rats (SNL) respectively, between the 17th and 28th postoperative days. We sacrificed animals by decapitation under deep isoflurane anesthesia, excised ganglia through a lumbar incision, and at the same time confirmed accuracy of initial surgery.
For patch-clamp recordings, we placed excised DRG into separate 35 mm Petri dishes containing cold, oxygenated, Hanks Balanced Salt Solution (Gibko, Invitrogen, Grand Islan, NY), and minced them with iris scissors. We dissociated ganglia enzymatically in a solution containing 0.25 ml 0.05% w:v liberase blendzyme 2 (Roche Diagnostics Corp., Indianapolis, IN) and 0.25 ml DMEM/F12 with glutaMAX (Dulbecco's modified Eagle's medium F12; Gibco, Invitrogen Corp., Carlsbad, CA) in an incubator at 37°C for 30 min. We then removed the supernatant after centrifugation and re-incubated cells at 37°C for another 30 min in 0.2 ml 0.0625% trypsin (Sigma, St. Louis, MO) and 0.0125% deoxyribonuclease 1 (150,000 U, Sigma, St. Louis, MO) in 0.25 ml DMEM. We then isolated cells by centrifugation (600 rpm for 5 min) after adding 0.25 ml trypsin inhibitor 0.1% w:v (Sigma St. Louis, MO), and re-suspended them in a culture medium consisting of 0.5 mM glutamine, 0.02 mg/ml gentamicin (Gibco, Invitrogen Corp., Carlsbad, CA), 100 ng/ml nerve growth factor 7S (Alomone Labs, Jerusalem, Israel), 2% (vol/vol) B-27 supplement (Gibco, Invitrogen Corp., Carlsbad, CA), and 98% (vol/vol) neural basal medium A (Gibco, Invitrogen Corp., Carlsbad, CA). Finally, we plated cells onto poly-l-lysine-coated 12-mm glass coverslips (Deutsche Spiegelglas; Carolina Biologic Supply, Burlington, NC), kept them in a humidified incubator at 37°C with 95% air and 5% CO2, and studied them within 3–8 h of dissociation.
We visualized plated neurons using an inverted Nikon Diaphot 300 microscope with Hoffman modulation optic system. We selected only large diameter neuronal somata (≥ 40 μm in diameter) because we have previously shown that only these develop KATP current alterations, as well as changes indicative of increased excitability after painful-like nerve injury by SNL [74]. Large neuronal somata, roughly correspond to large, myelinated Aβ fibers.
as §2
We recorded single channel currents at room temperature (20–25°C) using an Axon CNS Multiclamp 700B amplifier, digitized them using an analog-to-digital converter (Axon CNS DigiData 1440A; Axon Instruments, Foster, CA), and stored them into a PC. Sampling frequency of single-channel data was 5 KHz with a low-pass filter (1 KHz). We used pClamp version 10.2 software (Axon Instruments) for data acquisition and analysis. We applied a conventional 50% current amplitude threshold level criterion to determine open events. Channel open probability (Po) was determined from the ratios of the area under the peaks in the amplitude histograms fitted by a Gaussian distribution. […]
A general note: Patch clamp records ionic current or voltage across a cell membrane.

Read-outs that look alike come from different tables or passages of the source.

T3 sequence (Q09429 whole entry): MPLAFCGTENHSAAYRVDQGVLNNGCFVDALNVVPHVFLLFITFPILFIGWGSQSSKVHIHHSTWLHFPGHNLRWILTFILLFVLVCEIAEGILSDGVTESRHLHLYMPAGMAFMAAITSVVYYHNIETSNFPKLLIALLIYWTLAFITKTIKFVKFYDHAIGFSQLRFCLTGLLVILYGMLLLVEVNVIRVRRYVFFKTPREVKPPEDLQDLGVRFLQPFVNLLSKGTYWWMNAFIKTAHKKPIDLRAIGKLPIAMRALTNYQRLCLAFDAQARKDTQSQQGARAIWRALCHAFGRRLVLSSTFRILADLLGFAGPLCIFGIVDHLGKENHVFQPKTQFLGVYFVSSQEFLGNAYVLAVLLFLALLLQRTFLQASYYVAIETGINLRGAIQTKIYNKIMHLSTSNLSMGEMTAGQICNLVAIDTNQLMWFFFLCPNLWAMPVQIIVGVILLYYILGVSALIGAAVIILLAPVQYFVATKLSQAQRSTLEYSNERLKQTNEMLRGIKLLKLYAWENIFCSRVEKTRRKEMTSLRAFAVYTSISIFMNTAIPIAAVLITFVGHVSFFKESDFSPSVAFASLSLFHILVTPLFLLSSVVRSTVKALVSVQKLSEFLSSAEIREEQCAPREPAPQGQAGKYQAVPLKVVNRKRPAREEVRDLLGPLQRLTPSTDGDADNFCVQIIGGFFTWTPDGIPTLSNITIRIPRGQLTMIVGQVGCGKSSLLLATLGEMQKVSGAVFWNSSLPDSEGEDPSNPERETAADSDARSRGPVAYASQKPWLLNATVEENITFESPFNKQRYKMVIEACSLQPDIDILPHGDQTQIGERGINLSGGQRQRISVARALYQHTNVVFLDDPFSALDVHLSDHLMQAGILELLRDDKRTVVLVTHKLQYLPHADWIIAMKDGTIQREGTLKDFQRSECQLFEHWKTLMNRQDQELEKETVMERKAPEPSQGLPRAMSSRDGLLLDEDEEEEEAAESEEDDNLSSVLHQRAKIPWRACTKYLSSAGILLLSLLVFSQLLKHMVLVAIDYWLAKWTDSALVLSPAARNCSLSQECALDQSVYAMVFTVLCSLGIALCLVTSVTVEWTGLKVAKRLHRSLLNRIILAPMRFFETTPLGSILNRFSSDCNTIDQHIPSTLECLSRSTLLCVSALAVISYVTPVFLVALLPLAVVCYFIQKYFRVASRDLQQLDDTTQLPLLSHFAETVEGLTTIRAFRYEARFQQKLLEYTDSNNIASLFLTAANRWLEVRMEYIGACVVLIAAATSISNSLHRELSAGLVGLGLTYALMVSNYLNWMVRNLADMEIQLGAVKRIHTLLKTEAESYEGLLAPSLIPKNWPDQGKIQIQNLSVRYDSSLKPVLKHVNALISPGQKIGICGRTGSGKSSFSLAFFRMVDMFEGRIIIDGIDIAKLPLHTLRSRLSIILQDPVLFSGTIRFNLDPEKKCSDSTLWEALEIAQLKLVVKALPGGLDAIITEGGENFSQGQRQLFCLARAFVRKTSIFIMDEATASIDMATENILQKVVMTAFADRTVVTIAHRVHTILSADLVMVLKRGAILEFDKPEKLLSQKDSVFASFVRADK
T3 sequence (P70673 whole entry): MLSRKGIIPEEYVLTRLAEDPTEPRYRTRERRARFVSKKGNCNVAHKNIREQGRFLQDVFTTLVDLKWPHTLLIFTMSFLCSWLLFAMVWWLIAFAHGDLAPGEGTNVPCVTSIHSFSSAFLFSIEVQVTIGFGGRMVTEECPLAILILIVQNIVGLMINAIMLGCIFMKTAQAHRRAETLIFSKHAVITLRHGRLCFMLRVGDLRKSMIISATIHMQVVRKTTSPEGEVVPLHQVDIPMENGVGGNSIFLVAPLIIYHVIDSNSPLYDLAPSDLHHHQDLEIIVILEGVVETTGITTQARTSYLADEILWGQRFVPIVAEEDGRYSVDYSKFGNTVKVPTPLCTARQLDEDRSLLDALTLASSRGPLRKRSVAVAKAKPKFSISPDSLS
T1 sequence (Q09429 whole entry): as the sequence (Q09429 whole entry) above
T1 sequence (P70673 whole entry): as the sequence (P70673 whole entry) above
T2 sequence (Q09429 whole entry C717S): as the sequence (Q09429 whole entry) above, with C717S counted along it
T2 sequence (P70673 whole entry): as the sequence (P70673 whole entry) above

The term IC50 denotes the midpoint of a concentration-inhibition curve. As to `Nc1ncnc2c1ncn2[C@@H]1O[C@H](COP(=O)(O)OP(=O)(O)OP(=O)(O)O)[C@@H](O)[C@H]1O` [ATP], the “effect on recombinant channel currents” value in assay [1] (1 mM [ATP]i, COS7 cells, inside-out) is recorded as “strongly inhibited”; in assay [2] (1 mM [ATP]i), “strongly inhibited”. Also, the half-inhibitory concentration (IC50) in assay [1] (n = 7, read-out: ATP-sensitivity IC50) was 11.6 µM; in assay [2] (read-out: ATP-sensitivity IC50) it was 13.1 µM; in assay [3] (SNL neurons, various intracellular ATP concentrations, n = 5, read-out: ATP sensitivity IC50) it was 18.1 µM; in assay [3] (SS neurons, various intracellular ATP concentrations, n = 5, read-out: ATP sensitivity IC50), 14.7 µM; in assay [3] (absence of SNAP, SS neurons, n = 7, read-out: IC50 value for [ATP]i) it was 12.8 µM; in assay [3] (presence of SNAP, SS neurons, n = 7, read-out: IC50 value for [ATP]i) it was 54.4 µM. In addition, in assay [3] (ATP 1 mM, SS and SNL, -60 mV), the “effect on channel activity in inside-out patches” value was “reversibly blocked”.

Values taken from article PMC2673211, “Nitric oxide activates ATP-sensitive potassium channels in mammalian sensory neurons: action by direct S-nitrosylation” (Molecular Pain, 2009).
